Laboratory results published in PubChem BioAssay (NCI).
Values joined by “and” are separate entries in the source; they are usually repeats but may differ in a detail not shown here. Identical values can stand only once.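 Results reflect a 48-hour exposure of cells in 96-well plates to compound at five concentrations. Here, GI50 denotes the concentration required for 50% inhibition of growth. TGI marks complete inhibition of growth.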

Assays:
Assay in all cases: growth of human tumour cells (NCI), 48 h
DU-145 prostate = test system: DU-145 prostate
BT-549 breast = test system: BT-549 breast
NCI/ADR-RES ovarian = test system: NCI/ADR-RES ovarian
MCF7 breast = test system: MCF7 breast
MDA-MB-231 breast = test system: MDA-MB-231 breast
XF 498 CNS = test system: XF 498 CNS
HOP-18 NSCLC = test system: HOP-18 NSCLC
DMS 273 small cell lung = test system: DMS 273 small cell lung
LXFL 529 NSCLC = test system: LXFL 529 NSCLC
SNB-78 CNS = test system: SNB-78 CNS

SMILES	GI50 (DU-145 prostate)	TGI (DU-145 prostate)	GI50 (BT-549 breast)	TGI (BT-549 breast)	GI50 (NCI/ADR-RES ovarian)	TGI (NCI/ADR-RES ovarian)	GI50 (MCF7 breast)	TGI (MCF7 breast)	GI50 (MDA-MB-231 breast)	TGI (MDA-MB-231 breast)	TGI (XF 498 CNS)	TGI (HOP-18 NSCLC)	TGI (DMS 273 small cell lung)	TGI (LXFL 529 NSCLC)	TGI (SNB-78 CNS)	GI50 (HOP-18 NSCLC)	GI50 (DMS 273 small cell lung)
CCOC(=O)/C(=C/c1ccc([N+](=O)[O-])cc1)C(=O)c1ccccc1	2.08 µM	4.27 µM	2.04 µM	4.37 µM	3.43 µM	19.8 µM	2.32 µM	8.94 µM	2.34 µM	5.24 µM	–	–	–	–	–	–	–
CC1(C)OC(C(N)=O)=C(C(N)=O)O1	–	–	–	–	–	–	–	–	–	–	> 100 µM	> 100 µM	> 100 µM	> 100 µM	–	–	–
CN(C)C(=O)/N=c1\ss/c(=N\C(=S)N(C)C)n1-c1ccccc1	–	–	–	–	–	–	–	–	–	–	> 85.4 µM	> 100 µM	> 100 µM	> 88.4 µM	> 100 µM	> 100 µM	30 µM
Cc1ccc([N+](=O)[O-])cc1NC(=O)C(=O)Cc1occc(=O)c1O	–	–	–	–	–	–	–	–	–	–	> 100 µM	> 100 µM	–	–	–	–	–
O=C(/C=C\c1cccc2ccccc12)c1cccs1	–	–	–	–	–	–	–	–	–	–	–	21.8 µM	17.9 µM	22.9 µM	34.5 µM	–	–
COc1cc(/C=C2\[C@H]3c4c(c(OC)c(C)c(OC)c4OC)C[C@@H](C(=O)N2Cc2ccccc2)N3C(=O)OC(C)C)c(OC)c(C)c1OC	–	–	–	–	–	–	–	–	–	–	–	> 100 µM	> 100 µM	> 100 µM	–	–	–
CCC(C)OC(=O)C1C2CCC(O2)C1C(=O)O (stereo not drawn)	–	–	–	–	–	–	–	–	–	–	–	> 100 µM	> 60.1 µM	> 100 µM	> 100 µM	–	–
O=C(O)c1ccc2c(c1Nc1ccccc1)C(=O)c1ccccc1C2=O	82.8 µM	> 100 µM	16.5 µM	70 µM	52.3 µM	> 100 µM	38.1 µM	> 100 µM	46.2 µM	> 100 µM	–	–	–	–	–	–	–
COC(=O)C(C(=O)C(=O)Nc1ccccc1C(C)=O)c1nc2ccc(Cl)cc2[nH]c1=O (stereo not drawn)	–	–	–	–	–	–	–	–	–	–	–	> 100 µM	–	> 100 µM	> 100 µM	–	–
CCN(CC)CCOc1ccc(/C(=C(\C)Cc2ccc(OC)cc2)c2ccc(OC(=O)NCc3ccccc3)cc2)cc1	2.24 µM	5.56 µM	1.7 µM	3.36 µM	3.18 µM	11.8 µM	0.269 µM	2.62 µM	1.86 µM	3.47 µM	–	–	–	–	–	–	–
CC#CS(=O)(=O)c1ccccc1	–	10.2 µM	–	20.8 µM	–	28.8 µM	–	40.9 µM	–	22.8 µM	–	–	–	–	–	–	–
Cc1c2c(nn1C(=O)c1nn(-c3ccc(Cl)cc3)cc1O)-c1ccccc1CC2	0.0497 µM	> 100 µM	0.0306 µM	> 100 µM	0.0495 µM	> 100 µM	0.115 µM	> 100 µM	1.62 µM	> 100 µM	–	–	–	–	–	–	–
COc1ccc(-c2cc(=O)c3c(OC)c(OC)c(OC)c(OC)c3o2)cc1OC	–	> 100 µM	–	> 100 µM	–	97.1 µM	–	> 100 µM	–	> 100 µM	–	–	–	–	–	–	–
O=C(O)c1ccc(O)c(N=Nc2cc(S(=O)(=O)O)c3ccccc3c2O)c1	–	–	–	–	–	–	–	–	–	–	–	–	> 100 µM	–	> 100 µM	–	–
COc1ccc(/C=C2\CN(Cc3cn(CCCNc4ccnc5cc(Cl)ccc45)nn3)C/C(=C\c3ccc(OC)c(OC)c3)C2=O)cc1OC	1.1 µM	2.31 µM	1.81 µM	3.79 µM	> 100 µM	> 100 µM	0.503 µM	2.45 µM	1.7 µM	3.48 µM	–	–	–	–	–	–	–
CCCc1cc2cc(-n3nc(C)c4c3CC(C)(C)CC4=O)cc(NC3CCC(O)CC3)c2c(=O)[nH]1 (stereo not drawn)	0.0527 µM	> 100 µM	0.959 µM	> 100 µM	0.986 µM	> 100 µM	0.0516 µM	> 100 µM	0.192 µM	3.76 µM	–	–	–	–	–	–	–
O=C(Nc1nccs1)c1cc2c(cc1Cl)Sc1nccn1S2(=O)=O	16.3 µM	30 µM	18.2 µM	35.4 µM	18.9 µM	44.7 µM	6.72 µM	19.9 µM	19.5 µM	36.2 µM	–	–	–	–	–	–	–
Cc1cccc2c(N=Nc3ccc(S(N)(=O)=O)cc3)c(O)[nH]c12	> 25 µM	> 25 µM	> 25 µM	> 25 µM	> 25 µM	> 25 µM	> 25 µM	> 25 µM	> 25 µM	> 25 µM	–	–	–	–	–	–	–
C#CCOCn1cnc2c(=S)nc[nH]c21	–	–	–	–	–	–	–	–	–	–	> 100 µM	–	> 100 µM	> 100 µM	–	–	–
CC(=O)O[C@H]1C(=O)O[C@@H]2C[C@H]3C(C)=CC(=O)[C@@H](O)[C@]3(C)[C@H]3[C@@]4(O)OC[C@]32[C@@H]1[C@@H](C)[C@H]4O	–	0.176 µM	–	0.513 µM	0.844 µM	15.2 µM and 51.4 µM	< 0.01 µM	0.0593 µM and 0.0543 µM	–	0.399 µM	0.243 µM	1.53 µM	0.0682 µM	–	0.384 µM	–	–
C/C=C/C=N/N(C(=O)c1cc([N+](=O)[O-])cc([N+](=O)[O-])c1)C1=NC(c2ccccc2)C(c2ccccc2)=NN1 (stereo not drawn)	–	–	–	–	–	–	–	–	–	–	> 100 µM	> 100 µM	> 100 µM	–	> 100 µM	–	–
O=C1N=C(c2ccccc2)OC1C(=O)c1ccccc1 (stereo not drawn)	–	> 100 µM	–	> 100 µM	–	> 100 µM	–	> 100 µM	–	> 100 µM	–	–	–	–	–	–	–
N=C1N(c2ccccc2)C(=O)C23CCCC2C13N1CCOCC1 (stereo not drawn)	–	–	–	–	–	–	–	–	–	–	–	> 100 µM	> 100 µM	> 100 µM	> 100 µM	–	–
Nc1ncnc(NC2C=C(CO)C(O)C2O)c1[N+](=O)[O-] (stereo not drawn)	–	–	–	–	–	–	–	–	–	–	–	> 100 µM	> 100 µM	> 100 µM	> 100 µM	–	–
COC(=O)C(=O)C(C(=O)C(=O)Nc1ccc(Cl)cc1C)c1nc2ccc(C(=O)c3ccccc3)cc2[nH]c1=O (stereo not drawn)	–	–	–	–	–	–	–	–	–	–	–	> 100 µM	> 100 µM	> 100 µM	> 100 µM	–	–
COc1ccc(/C(C)=C(\c2ccc(Cl)cc2)c2ccc(OCCN3CCCC3)cc2)cc1F	3.9 µM	8.28 µM	3.24 µM	6.74 µM	3.9 µM	7.8 µM	2.41 µM	6.15 µM	3.56 µM	6.97 µM	–	–	–	–	–	–	–
CN=C1Nc2ccc(Cl)cc2C(c2ccccc2)=NN1C	–	–	–	–	–	–	–	–	–	–	> 100 µM	–	> 100 µM	> 100 µM	> 100 µM	–	–
